Measurements published in patent US10294202B2, “Pyrrolidinones as herbicides” (FMC Corporation, priority 2013, dated 2019).

Tests used:
corn = experiment: Test A pre-/postemergence herbicide test; type: in vivo, Zea mays; details: Postemergence
Summary of the method: (§1)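 Both application timings used compounds in a non-phytotoxic solvent plus surfactant. Pre-emergence: soil sprayed directly after seeding into loam/sand. Post-emergence: foliage of 2–10 cm seedlings (1–2 leaves) sprayed. Injury rated ~10 days later, 0–100.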

wheat = experiment: Test A pre-/postemergence herbicide test; type: in vivo, Triticum aestivum; details: Postemergence
Summary of the method: as §1

blackgrass = experiment: Test A postemergence herbicide test; type: in vivo, Alopecurus myosuroides
Summary of the method: (§2)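 Plants at the one- to two-leaf stage, 2–10 cm tall, grown in loam/sand pots, received postemergence sprays of the test chemicals. After about 10 days in the greenhouse, injury was scored visually against untreated controls on a 0–100 scale (0 none, 100 complete control).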

ragweed = experiment: Test A pre-/postemergence herbicide test; type: in vivo, Ambrosia elatior
Summary of the method: as §1

rice = experiment: Test B flooded paddy test; type: in vivo, Oryza sativa; details: 500 g ai/ha, Flood; scale of 0 to 100 where 0 is no effect and 100 is complete control
Summary of the method: (§3)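 Treatment was made at the 2-leaf stage by dosing the standing floodwater, kept 3 cm above soil level for the whole test. Greenhouse exposure lasted 13 to 15 days. Response is a visual percent rating relative to controls, where a dash indicates no test result.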

sedge, umbrella = experiment: Test B flooded paddy test; type: in vivo, Cyperus difformis; details: 500 g ai/ha, Flood; scale of 0 to 100 where 0 is no effect and 100 is complete control
Summary of the method: as §3

galium = experiment: Test A postemergence herbicide test; type: in vivo, Galium aparine
Summary of the method: as §2

pigweed = experiment: Test A pre-/postemergence herbicide test; type: in vivo, Amaranthus retroflexus
Summary of the method: as §1

ryegrass, Italian = experiment: Test A pre-/postemergence herbicide test; type: in vivo, Lolium multiflorum
Summary of the method: as §1

giant foxtail = experiment: Test A pre-/postemergence herbicide test; type: in vivo, Setaria faberii
Summary of the method: as §1

barnyardgrass [1] = experiment: Test A pre-/postemergence herbicide test; type: in vivo, Echinochloa crus-galli
Summary of the method: as §1

kochia = experiment: Test A pre-/postemergence herbicide test; type: in vivo, Kochia scoparia
Summary of the method: as §1

barnyardgrass [2] = experiment: Test B flooded paddy test; type: in vivo, Echinochloa crus-galli; details: 500 g ai/ha, Flood; scale of 0 to 100 where 0 is no effect and 100 is complete control
Summary of the method: as §3

ducksalad = experiment: Test B flooded paddy test; type: in vivo, Heteranthera limosa; details: 500 g ai/ha, Flood; scale of 0 to 100 where 0 is no effect and 100 is complete control
Summary of the method: as §3

[3] = 125 g ai/ha, visual rating on 0 to 100 scale (0 no effect, 100 complete control), approx. 10 days
[4] = 500 g ai/ha, 0 to 100 scale (0 no effect, 100 complete control)
[5] = Postemergence, 125 g ai/ha, visual rating on 0 to 100 scale (0 no effect, 100 complete control), approx. 10 days
[6] = Postemergence, 500 g ai/ha, 0 to 100 scale (0 no effect, 100 complete control)
[7] = Preemergence, 125 g ai/ha, 0 to 100 scale where 0 is no effect and 100 is complete control
[8] = Preemergence, 500 g ai/ha, visual rating on 0 to 100 scale (0 no effect, 100 complete control)

| SMILES | Plant response rating, Corn (corn; [3]) | Plant response rating, Corn (corn; [4]) | Plant response rating, Wheat (wheat; [3]) | Plant response rating, Wheat (wheat; [4]) | Plant response rating, Blackgrass (blackgrass; [3]) | Plant response rating, Blackgrass (blackgrass; [4]) | Plant response rating, Ragweed (ragweed; [5]) | Plant response rating, Ragweed (ragweed; [6]) | Plant response rating, Ragweed (ragweed; [7]) | Ragweed plant response rating (ragweed; [8]) | Plant response rating, Rice (rice) | Plant response rating, Sedge, Umbrella (sedge, umbrella) | Plant response rating, Galium (galium; [3]) | Plant response rating, Galium (galium; [4]) | Plant response rating, Pigweed (pigweed; [5]) | Plant response rating, Pigweed (pigweed; [6]) | Plant response rating, Pigweed (pigweed; [7]) | Pigweed plant response rating (pigweed; [8]) | Plant response rating, Ryegrass, Italian (ryegrass, Italian; [5]) | Plant response rating, Ryegrass, Italian (ryegrass, Italian; [6]) | further results |
| --- | --- | --- | --- | --- | --- | --- | --- | --- | --- | --- | --- | --- | --- | --- | --- | --- | --- | --- | --- | --- | --- |
| O=C1NCC(c2cccc(Oc3ccccc3)c2)C1C(=O)Nc1ccccc1F (stereo not drawn) [Compound 330] | 0 | 0 | 0 | 0 | 0 | 0 | 0 | 0 | 0 | 0 | 0 | 0 | 20 | 30 | 0 | 0 | 0 | 20 | 0 | 0 | Plant response rating, Ryegrass, Italian (ryegrass, Italian; [7]): 30; Ryegrass, Italian plant response rating (ryegrass, Italian; [8]): 40; Plant response rating, Foxtail, Giant (giant foxtail; [5]): 80; Plant response rating, Foxtail, Giant (giant foxtail; [6]): 80; Plant response rating, Foxtail, Giant (giant foxtail; [7]): 50; Foxtail, Giant plant response rating (giant foxtail; [8]): 80; Plant response rating, Barnyardgrass (barnyardgrass [1]; [5]): 60; Plant response rating, Barnyardgrass (barnyardgrass [1]; [6]): 60; Plant response rating, Barnyardgrass (barnyardgrass [1]; [7]): 60; Barnyardgrass plant response rating (barnyardgrass [1]; [8]): 70; Plant response rating, Kochia (kochia; [5]): 0; Plant response rating, Kochia (kochia; [6]): 0; Plant response rating, Kochia (kochia; [7]): 20; Kochia plant response rating (kochia; [8]): 20; Plant response rating, Barnyardgrass (barnyardgrass [2]): 0; Plant response rating, Ducksalad (ducksalad): 100 |
| O=C1NCC(c2cccc(Oc3ccccc3)c2)C1C(=O)Nc1cccc(F)c1F (stereo not drawn) [Compound 332] | 0 | 0 | 0 | 20 | 0 | 0 | 0 | 0 | 0 | 0 | 0 | 0 | 0 | 20 | 0 | 0 | 0 | 0 | 0 | 20 | Plant response rating, Ryegrass, Italian (ryegrass, Italian; [7]): 0; Ryegrass, Italian plant response rating (ryegrass, Italian; [8]): 0; Plant response rating, Foxtail, Giant (giant foxtail; [5]): 30; Plant response rating, Foxtail, Giant (giant foxtail; [6]): 80; Plant response rating, Foxtail, Giant (giant foxtail; [7]): 80; Foxtail, Giant plant response rating (giant foxtail; [8]): 90; Plant response rating, Barnyardgrass (barnyardgrass [1]; [5]): 40; Plant response rating, Barnyardgrass (barnyardgrass [1]; [6]): 50; Plant response rating, Barnyardgrass (barnyardgrass [1]; [7]): 70; Barnyardgrass plant response rating (barnyardgrass [1]; [8]): 80; Plant response rating, Kochia (kochia; [5]): 0; Plant response rating, Kochia (kochia; [6]): 20; Plant response rating, Kochia (kochia; [7]): 0; Kochia plant response rating (kochia; [8]): 0; Plant response rating, Barnyardgrass (barnyardgrass [2]): 40; Plant response rating, Ducksalad (ducksalad): 75 |
| O=C1NCC(c2cccc(Oc3ccccc3)c2)C1C(=O)Nc1ccc(F)c(F)c1F (stereo not drawn) [Compound 333] | 0 | 20 | 0 | 20 | 0 | 30 | 0 | 20 | 0 | 0 | 0 | 0 | 0 | 40 | 0 | 20 | 0 | 0 | 0 | 30 | Plant response rating, Ryegrass, Italian (ryegrass, Italian; [7]): 0; Ryegrass, Italian plant response rating (ryegrass, Italian; [8]): 20; Plant response rating, Foxtail, Giant (giant foxtail; [5]): 50; Plant response rating, Foxtail, Giant (giant foxtail; [6]): 80; Plant response rating, Foxtail, Giant (giant foxtail; [7]): 80; Foxtail, Giant plant response rating (giant foxtail; [8]): 90; Plant response rating, Barnyardgrass (barnyardgrass [1]; [5]): 20; Plant response rating, Barnyardgrass (barnyardgrass [1]; [6]): 60; Plant response rating, Barnyardgrass (barnyardgrass [1]; [7]): 50; Barnyardgrass plant response rating (barnyardgrass [1]; [8]): 90; Plant response rating, Kochia (kochia; [5]): 0; Plant response rating, Kochia (kochia; [6]): 20; Plant response rating, Kochia (kochia; [7]): 0; Kochia plant response rating (kochia; [8]): 0; Plant response rating, Barnyardgrass (barnyardgrass [2]): 0; Plant response rating, Ducksalad (ducksalad): 20 |
| O=C1NCC(c2cccc(Oc3ccccc3)c2)C1C(=O)Nc1ccccc1Cl (stereo not drawn) [Compound 334] | 0 | 0 | 0 | 0 | 0 | 0 | 0 | 0 | 0 | 0 | 0 | 0 | 0 | 0 | 0 | 0 | 0 | 0 | 0 | 0 | Plant response rating, Ryegrass, Italian (ryegrass, Italian; [7]): 0; Ryegrass, Italian plant response rating (ryegrass, Italian; [8]): 0; Plant response rating, Foxtail, Giant (giant foxtail; [5]): 0; Plant response rating, Foxtail, Giant (giant foxtail; [6]): 10; Plant response rating, Foxtail, Giant (giant foxtail; [7]): 0; Foxtail, Giant plant response rating (giant foxtail; [8]): 50; Plant response rating, Barnyardgrass (barnyardgrass [1]; [5]): 0; Plant response rating, Barnyardgrass (barnyardgrass [1]; [6]): 0; Plant response rating, Barnyardgrass (barnyardgrass [1]; [7]): 0; Barnyardgrass plant response rating (barnyardgrass [1]; [8]): 0; Plant response rating, Kochia (kochia; [5]): 0; Plant response rating, Kochia (kochia; [6]): 0; Plant response rating, Kochia (kochia; [7]): 0; Kochia plant response rating (kochia; [8]): 0; Plant response rating, Barnyardgrass (barnyardgrass [2]): 30; Plant response rating, Ducksalad (ducksalad): 40 |
